# Measured values taken from publication PMC12523804, “Evaluation of molecular mechanisms of (Z)-3-(pentadec-10′-enyl)-catechol (litreol) and synthetic derivatives as inhibitors of human leukotriene biosynthesis” (Redox Biology, 2025).
# Tested on: NF-κB
# Assay: Western blot of NF-κB
# Assay type: cell-based
# Conditions: LPS stimulation
# Protocol: Human polymorphonuclear leukocytes (PMNLs; 50 × 10^6), isolated from whole blood, were resuspended in 1 mL of cold PGC buffer. Briefly, neutrophils were pre-incubated for 15 min at 37 °C with test compounds (1 μM). […] The samples were subsequent centrifuged (1200g, 10 min) and the pellets were resuspended in 100 μL od SDS-PAGE loading buffer (2x) (Tris 1 M pH 8, EDTA 0.2 M, 10 % SDS, 10 % mercaptoethanol). Correct protein loading on the gels and transfer of proteins to the nitrocellulose membrane were confirmed by Ponceau staining. Membranes with transferred proteins were incubated overnight with primary antibodies in 1x Tris Buffered Saline (TBS) with 1 % Casein (Biorad- #1610782). Membranes were then washed and incubated with horseradish peroxidase-conjugated secondary antibodies for 1 h at room temperature. Blots were developed using enhanced chemiluminescence detection reagents ECL (Immobilion ECL Ultra Western HRP Substrate - Cat# WBULS0500 Millipore) and acquired using ChemiDoc Imaging System (BioRad). Antibody recognizing phosphorylated p38-MAPkinase, pERK, ERK, NfKB were from Cell Signalling Technology (Boston, MA) and used at 1:1000 dilution. Secondary antibodies were purchased from Biorad (170–6515; 170–6516) and used at 1:2000 diluition.
smiles,measurement,value
"CCCC/C=C\CCCCCCCCCc1cccc(O)c1O [CI, (Z)-3-(pentadec-10′-enyl)-catechol]",NF-κB expression (Western blot),most pronounced effect
